Key:
[1] = system: ovariectomized Wistar female rats; test: Antiuterotrophic/antisulfatase activity: inhibition of E1S stimulated uterus weight; assay type: in vivo, rat
Experimental: A short model, derived from Purohit's method, was developed for the evaluation in vivo of nonestrogenic steroid sulfatase inhibitors.
Wistar female rats were ovariectomized and left to rest for 4 weeks. Prior to treatment, the absence of cyclicity was checked by vaginal smears.
Animals were supplemented with estrone sulfate (E1S) at 50 μg/kg/day s.c., alone or combined with oral administration of potential sulfatase inhibitors, at 1 mg/kg/day for 4 days. The uteri were removed, freed of adjacent tissue and wet weighed.
The results are expressed as % of inhibition of the E1S induced stimulation.
The activity of Ex 55 on E1S stimulated uterus weight was evaluated in relation to the standard inhibitor 6,6,7 COUMATE from 0.03 mg/kg/day to 1 mg/kg/day p.o.
(§1) In this study, a last administration was performed 24 hours before the necropsy for E1S and E2 serum levels assays. The uteri were removed, freed of adjacent tissue, wet weighed and immediately deep frozen until the determination of sulfatase activity.

[2] = molecular target: T1, estrone sulfatase (Rattus norvegicus, UniProt P15589); test: Estrone sulfatase activity in the uterus of treated rats; assay type: in vivo
T1 construct: uteri were thawed, weighed and homogenized; from tissue; host or cells: uterus of animals dosed orally (ex vivo homogenate supernatant)
T1 sequence (P15589 20-577): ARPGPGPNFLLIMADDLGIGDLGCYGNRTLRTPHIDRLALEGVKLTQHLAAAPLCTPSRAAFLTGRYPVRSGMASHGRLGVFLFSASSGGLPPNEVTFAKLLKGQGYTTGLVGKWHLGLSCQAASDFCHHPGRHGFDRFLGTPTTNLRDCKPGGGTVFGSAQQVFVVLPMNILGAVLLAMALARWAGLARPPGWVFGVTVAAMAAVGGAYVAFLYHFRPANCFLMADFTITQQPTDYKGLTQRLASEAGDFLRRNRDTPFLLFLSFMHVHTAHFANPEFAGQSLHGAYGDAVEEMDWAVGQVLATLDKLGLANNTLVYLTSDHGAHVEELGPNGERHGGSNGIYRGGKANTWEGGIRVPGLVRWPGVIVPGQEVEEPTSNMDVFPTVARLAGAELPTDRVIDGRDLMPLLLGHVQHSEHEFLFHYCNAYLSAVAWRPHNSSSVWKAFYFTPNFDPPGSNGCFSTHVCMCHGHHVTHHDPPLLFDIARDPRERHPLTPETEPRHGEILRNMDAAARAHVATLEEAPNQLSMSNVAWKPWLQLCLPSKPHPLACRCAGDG
Experimental: as §1
Estrone sulfatase activity was measured according to the method described by Purohit et al., with slight modifications. Briefly, uteri were thawed, weighed and homogenized. Aliquots of the supernatant were treated with dextran-coated charcoal and assayed for sulfatase. E1S activity was assessed after 30 min of incubation with 5 nM of ^3H-E1S and 20 μM of unlabelled E1S as substrate. Radioactivity was measured by LSC.
Estrone sulfatase activity was expressed as pmol/h/mg protein and reported as percentage of inhibition versus E1S.

[3] = Serum estrogen levels (E1S and E2) in treated rats; assay type: in vivo, rat; details: 24 h after last administration
Experimental: as §1
E1S and E2 levels were determined according to the supplier's standard method (DSL, Webster, Tex., USA).

[4] = system: MCF-7 cells; test: Hormono-dependent induced MCF-7 xenografts: volume and weight; assay type: in vivo, mice; details: oral 0.1 mg/kg/day for 6 weeks
Experimental: (§2) MCF-7 cells, derived from human breast adenocarcinoma, were injected subcutaneously in ovariectomized athymic nude mice supplemented with estrone sulfate (pellets 0.5 mg/90 day release). Xenograft volumes were determined once weekly. When tumor volumes reached a significant increase, 6,6,7 COUMATE and Ex 55 were orally administered at 0.1 mg/kg/day for 6 weeks.
(§3) Xenografts were measured, removed, weighed, and deep frozen until the determination of steroid sulfatase activity.

[5] = molecular target: T2, steroid sulfatase (Homo sapiens, UniProt P08842); test: Xenograft steroid sulfatase activity; assay type: in vivo, mouse; details: oral 0.1 mg/kg/day for 6 weeks
T2 construct: from tissue; host or cells: MCF-7 xenograft tumour removed from athymic nude mice
T2 sequence (P08842 22-583): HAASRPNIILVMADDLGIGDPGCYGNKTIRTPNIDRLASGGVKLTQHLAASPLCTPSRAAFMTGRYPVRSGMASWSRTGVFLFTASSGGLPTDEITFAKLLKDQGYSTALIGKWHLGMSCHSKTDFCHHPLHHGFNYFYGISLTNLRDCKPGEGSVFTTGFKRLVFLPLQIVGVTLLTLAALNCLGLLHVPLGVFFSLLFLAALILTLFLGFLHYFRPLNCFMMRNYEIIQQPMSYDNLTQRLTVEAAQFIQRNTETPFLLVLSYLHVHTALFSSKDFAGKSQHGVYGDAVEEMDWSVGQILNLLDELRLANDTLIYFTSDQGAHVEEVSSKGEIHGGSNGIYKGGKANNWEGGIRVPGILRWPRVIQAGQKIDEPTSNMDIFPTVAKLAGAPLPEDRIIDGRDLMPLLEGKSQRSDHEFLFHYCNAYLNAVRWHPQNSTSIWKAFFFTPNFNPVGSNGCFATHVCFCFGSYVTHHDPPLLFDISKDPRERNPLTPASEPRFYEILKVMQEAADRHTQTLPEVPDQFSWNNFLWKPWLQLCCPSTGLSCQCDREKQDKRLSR
Experimental: as §2, §3

[6] = system: prepubescent female rats; test: Residual estrogenic activity in vivo (uterotrophic assay)
Experimental: These compounds were checked for residual estrogenic activity in vivo in the classical uterotrophic assay after 3-day administration by oral route in prepubescent female rats.
Prepubescent female rats were orally treated at 1 mg/rat/day for 3 days. On the day following the last treatment, uteri were removed and wet weight were recorded.
The results are expressed as % of stimulation of uterus weight in comparison with controls.

[7] = MCF-7 xenografts, nude mice with E1S pellet

## NS(=O)(=O)Oc1ccc2c(c1)S(=O)(=O)C(CC1CCCCCC1)=C2 [Ex 55, Sulfamic acid, 2-cycloheptylmethyl-benzothiophene-6-yl-1,1-dioxide ester]
[1]; 0.03 mg/kg/day p.o.
  Inhibition of E1S stimulated uterus weight: 0%
[1]; 0.1 mg/kg/day p.o.
  Inhibition of E1S stimulated uterus weight: 0%
[1]; 0.3 mg/kg/day p.o.
  Inhibition of E1S stimulated uterus weight: 36%
[1]; 1 mg/kg/day p.o.
  Inhibition of E1S stimulated uterus weight: 72%
[1]; ovariectomized rats, E1S 50 μg/kg/day s.c., compound oral 1 mg/kg/day for 4 days
  % inhibition of the E1S induced stimulation (uterus weight): 81%
[1]; summary of the antiuterotrophic assay
  inhibition of E1S stimulated uterus weight (in words): significant inhibition
[2]; 0.03 mg/kg/day p.o.
  Estrone sulfatase activity in the uterus, percentage of inhibition versus E1S: 19%
[2]; 0.1 mg/kg/day p.o.
  Estrone sulfatase activity in the uterus, percentage of inhibition versus E1S: 64%
[2]; 0.3 mg/kg/day p.o.
  Estrone sulfatase activity in the uterus, percentage of inhibition versus E1S: 96%
[2]; 1 mg/kg/day p.o.
  Estrone sulfatase activity in the uterus, percentage of inhibition versus E1S: 97%
[3]; 0.03 mg/kg/day p.o.
  E1S levels (serum): 17 ± 2.5 ng/mL
  E2 levels (serum): 31 ± 2.8 pg/mL
[3]; 0.1 mg/kg/day p.o.
  E1S levels (serum): 21 ± 2.4 ng/mL
  E2 levels (serum): 28 ± 1.3 pg/mL
[3]; 0.3 mg/kg/day p.o.
  E1S levels (serum): 69 ± 5.9 ng/mL
  E2 levels (serum): 22 ± 1.2 pg/mL
[3]; 1 mg/kg/day p.o.
  E1S levels (serum): 83 ± 2.5 ng/mL
  E2 levels (serum): 15 ± 0.9 pg/mL
[4]; [7]
  Xenograft volume after 6 week treatment: 1488 ± 233 mm^3
  Xenograft weight after 6 week treatment: 877 ± 185 mg
[4]
  inhibition of the E1S induced stimulation (xenograft volume): 18%
  inhibition of xenograft weight: 35%
[5]; MCF-7 xenografts
  Xenograft steroid sulfatase activity: 263 ± 17 pmol/h/mg protein
[5]; read-out: inhibition of intratumoral steroid sulfatase activity
  inhibition at 0.1 mg/kg/day: 84%
other
  melting point: 135 °C
[6]; prepubescent female rats, oral, 1 mg/rat/day for 3 days
  % stimulation of uterus weight in comparison with controls: 3%
[6]; summary of the uterotrophic assay
  estrogenicity (in words): lack of estrogenicity
